Measurements taken from EP2072521A1, “Octahedral metal (III) polypyridyl complexes and their use in prevention and treatment of cancer” (Freie Universität Berlin, priority 2007, dated 2009).
Read-outs that look alike come from different tables or passages of the source. Blank lines part the entries; values can stand above or below the compound they belong to.

Assays:
MCF-7 breast cancer [1] = assay: Antiproliferative effects, crystal violet staining, MCF-7 cells; assay type: cell-based, human
Procedure: (§1) MCF-7 breast cancer and HT-29 human colon carcinoma cells were maintained in 10 % (v/v) fetal calf serum containing cell culture medium (minimum essential eagle supplemented with 2.2 g NaHCO3, 110 mg/L sodium pyruvate and 50 mg/L gentamicin sulfate adjusted to pH 7.4) at 37°C/5 % CO2 and passaged twice a week according to standard procedures. The antiproliferative effects of Rh1a - Rh5a were determined by an established procedure. Cells were suspended in cell culture medium (MCF-7: 10000 cells/mL, HT-29: 2850 cells/mL), and 100 µL aliquots thereof were plated in 96 well plates and incubated at 37°C/5 % CO2 for 72 h (MCF-7) or 48 h (HT-29). Stock solutions of the compounds in DMSO were freshly prepared and diluted with cell culture medium to the desired concentrations (final DMSO concentration: 0.1 % v/v). The medium in the plates was replaced with the medium containing the compounds in graded concentrations (six replicates). After further incubation for 96 h (MCF-7) or 72 h (HT-29) the cell biomass was determined by crystal violet staining and the IC50 values were established as those concentrations causing 50 % inhibition of cell proliferation. Results were calculated from 2 - 3 independent experiments. The results are summarized in Tab. 1 and Fig. 4. Table 1 IC50 values (µM) for the complexes mer-[RhCl3(DMSO)(pp)] Rh1a - Rh5a
(§2) The antiproliferative effects of the compounds Ir1a - Ir5a were determined as described in Example 2.

[2] = test system: HT-29 human colon carcinoma cells; assay: Antiproliferative effects, crystal violet staining, HT-29 cells; assay type: cell-based
Procedure: as §1, §2

MCF-7 cells = assay: Cellular uptake of iridium (GF-AAS), MCF-7 cells; assay type: cell-based, human; conditions: 6 h; for MCF-7 uptake 10 µM: 10 µM complex, 0.0: value below the detection limit; for MCF-7 uptake 100 µM: 100 µM complex
Procedure: (§3) For cellular uptake studies, HT-29 and MCF-7 cells were grown until at least 70 % confluency in 175 cm^2 cell culture flasks. Stock solutions of complexes Ir1a - Ir5a in DMSO were freshly prepared and diluted with cell culture medium to the desired concentrations (final DMSO concentrations: 0.1 % v/v, final complex concentration: 10 or 100 µM). The cell culture medium of the cell culture flasks was replaced with 10 mL of the cell culture medium solutions containing Ir1a - Ir5a (10 µM or 100 µM) and the flasks were incubated for 6 h at 37°C/5 % CO2. The cell pellets were isolated, resuspended in 1 - 5 mL […], lysed by using a sonotrode and approximately diluted using twice distilled water. The iridium content of the samples was determined by graphite furnace atomic absorption spectroscopy (GF-AAS) and the protein content of separate aliquots by the Bradford method. To correct for matrix effects in GF-AAS measurements, samples and standards were adjusted to the same protein concentration by dilution with twice distilled water. Prior to GF-AAS analysis 20 µL triton X-100 (1 %) and 20 µL hydrochloric acid were added to each 200 µL sample of the cell suspensions. Cellular uptake was expressed as ng iridium per mg cell protein for data obtained from 3 independent experiments. Conversion of the ng iridium/mg protein value to the micromolar cellular concentration was performed as described previously.
(§4) A Vario 6 graphite furnace atomic absorption spectrometer (Analytik Jena) was employed for the lr quantification using a wavelength of 208.9 nm with a bandpass of 0.5 nm. A deuterium lamp was used for background correction. Matrix containing standards were obtained by addition of an iridium stock solution (1 mg/mL lr in 5 % HCl). 18 % hydrochloric acid solution was employed as a modifier. Probes were injected at a volume of 25 µL into graphite tubes. The detection limit for the method was 3.8 µg Ir L^-1. The mean AUC (area under curve) absorptions of duplicate injections were used throughout the study.

HT-29 = assay: Cellular uptake of iridium (GF-AAS), HT-29 cells; assay type: cell-based, human; conditions: 6 h, 0.0: value below the detection limit; for HT-29 uptake 10 µM: 10 µM complex; for HT-29 uptake 100 µM: 100 µM complex
Procedure: as §3, §4

tumour cell lines = conditions: references [7, 8]; cited from earlier work
[3] = references [3], [4]; cited from earlier work
MCF-7 breast cancer [4] = conditions: references [5, 6]; cited from earlier work
[5] = test system: HT-29 human colon carcinoma cells; conditions: references [5, 6]; cited from earlier work
Calu (lung carcinoma) = conditions: Mestroni et al. [1]; cited from earlier work
[6] = test system: A 2780 (ovarian carcinoma); conditions: Mestroni et al. [1]; cited from earlier work
LoVo (colon carcinoma) = conditions: Mestroni et al. [1]; cited from earlier work
mouse P 388 leukemia = conditions: reference [2]; cited from earlier work
[7] = Stability and isomerization in solution (1H NMR); assay type: physicochemical; conditions: in DMSO
[8] = Table 1, 96 h incubation, 2 - 3 independent experiments, spread in parentheses
[9] = Table 2, determined as described in Example 2
[10] = Table 1, 72 h incubation, 2 - 3 independent experiments, spread in parentheses

Compound: N.N.[Cl][Pt][Cl] [Cisplatin, reference compound]
IC50 (MCF-7 breast cancer [1]; [8]): 2 µM
IC50 (MCF-7 breast cancer [1]; [9]): 2 µM
IC50 [2, 10]: 7 µM
IC50 [2, 9]: 7 µM

IC50 (MCF-7 breast cancer [1]; [9]): 4.6 µM
IC50 [2, 9]: 4.6 µM
Compound: CO.C[S+](C)(=O)[Ir-3]1([Cl])([Cl])([Cl])[n+]2cccc3ccc4ccc[n+]1c4c32.O [Ir2a, fac-[IrCl3(DMSO)(phen)]·CH3OH·H2O]
MCF-7 uptake 10 µM (MCF-7 cells): 0.0 ng Ir/mg protein
MCF-7 uptake 100 µM (MCF-7 cells): 74.4(13.5) ng Ir/mg protein
HT-29 uptake 10 µM (HT-29): 0.0 ng Ir/mg protein
HT-29 uptake 100 µM (HT-29): 21.2(5.2) ng Ir/mg protein

Compound: [Cl][Ir-]([Cl])([Cl])[Cl].c1c[nH+]c[nH]1.c1c[nH]cn1.c1c[nH]cn1 [[ImH][trans-IrCl4(Im)2]]
biological activity (tumour cell lines): biologically inactive

IC50 (MCF-7 breast cancer [1]; Homo sapiens, MCF7, Table 1, 96 h incubation, 2 - 3 independent experiments, spread in parentheses): 0.8 µM
IC50 (MCF-7 breast cancer [1]; Homo sapiens, MCF7, Table 2, determined as described in Example 2): 0.8 µM
IC50 ([2]; Homo sapiens, HT-29, Table 1, 72 h incubation, 2 - 3 independent experiments, spread in parentheses): 1.8 µM
IC50 ([2]; Homo sapiens, HT-29, Table 2, determined as described in Example 2): 1.8 µM
Compound: c1ccc2nc3c4cccnc4c4ncccc4c3nc2c1 [dppz, dipyrido[3,2-a:2',3'-c]phenazine, reference compound]

Compound: C1CSCCSCCN1.[Cl][Rh]([Cl])[Cl] [fac-[RhCl3(9-[ane]-NS2)]]
cytotoxicity [3]: exhibit cytotoxicity

Compound: [Cl][Rh]([Cl])[Cl].c1ccc(-c2cccc(-c3ccccn3)n2)nc1 [mer-[RhCl3(tpy)]]
cytotoxicity [3]: exhibit cytotoxicity

Compound: [(DMSO)2H] [[(DMSO)2H] [trans-IrCl4(DMSO)2]]
biological activity (tumour cell lines): biologically inactive

IC50 (MCF-7 breast cancer [1]; [9]): 2.3 µM
IC50 [2, 9]: 7.4 µM
Compound: [(η^5-C5Me5)IrCl(dppz)](CF3SO3) [compound 6, reference compound]
IC50 (MCF-7 breast cancer [4]): 2.3 µM
HT-29 uptake 10 µM (HT-29): 70.4(1.0) ng Ir/mg protein
IC50 [5]: 7.4 µM

IC50 (MCF-7 breast cancer [1]; [9]): 0.17 µM
IC50 [2, 9]: 0.41 µM
Compound: [(η^5-C5Me5)Ir{(Me2N)2CS}(dppn)](CF3SO3) [compound 7, reference compound]
HT-29 uptake 10 µM (HT-29): 149.6(7.8) ng Ir/mg protein

Compound: [ImH][trans-IrCl4(DMSO)(Im)]
biological activity (tumour cell lines): biologically inactive

Compound: [Rh(Im)(tpy)2]Cl·3H2O
cytotoxicity [3]: exhibit cytotoxicity

IC50 (MCF-7 breast cancer [1]; [9]): 0.8 µM
IC50 [2, 9]: 1.5 µM
Compound: fac-[IrC/3(DMSO)(dppz)]·2H2O [Ir4a]
MCF-7 uptake 10 µM (MCF-7 cells): 3.3(3.3) ng Ir/mg protein
MCF-7 uptake 100 µM (MCF-7 cells): 644.0(149.1) ng Ir/mg protein
HT-29 uptake 10 µM (HT-29): 11.9(3.0) ng Ir/mg protein
HT-29 uptake 100 µM (HT-29): 1664.4(473.1) ng Ir/mg protein

IC50 (MCF-7 breast cancer [1]; [9]): 5.5 µM
IC50 [2, 9]: 6.1 µM
Compound: fac-[IrC/3(DMSO)(dpq)·3H2O [Ir3a]
MCF-7 uptake 10 µM (MCF-7 cells): 0.3(0.3) ng Ir/mg protein
MCF-7 uptake 100 µM (MCF-7 cells): 640.5(148.9) ng Ir/mg protein
HT-29 uptake 10 µM (HT-29): 0.0 ng Ir/mg protein
HT-29 uptake 100 µM (HT-29): 167.8(3.4) ng Ir/mg protein

IC50 (MCF-7 breast cancer [1]; [9]): > 100 µM
IC50 [2, 9]: > 100 µM
Compound: fac-[IrCl3(DMSO)(bpy)·2H2O [Ir1a]
HT-29 uptake 10 µM (HT-29): 0.0 ng Ir/mg protein
HT-29 uptake 100 µM (HT-29): 0.0 ng Ir/mg protein

IC50 (MCF-7 breast cancer [1]; [9]): 0.21 µM
IC50 [2, 9]: 1.3 µM
Compound: fac-[IrCl3(DMSO)(dppn)]·2CH3OH [Ir5a]
MCF-7 uptake 10 µM (MCF-7 cells): 19.3(0.8) ng Ir/mg protein
MCF-7 uptake 100 µM (MCF-7 cells): 180.8(2.7) ng Ir/mg protein
HT-29 uptake 10 µM (HT-29): 37.4(8.9) ng Ir/mg protein
HT-29 uptake 100 µM (HT-29): 226.1(26.6) ng Ir/mg protein

Compound: mer,cis-[RhCl3(DMSO-κS)(Im)2]
IC50 (Calu (lung carcinoma)): > 200 µM
IC50 [6]: > 200 µM
IC50 (LoVo (colon carcinoma)): 40 ± 15 µM

Compound: mer,cis-[RhCl3(DMSO-κS)(py)2]
Activity against mouse P 388 leukemia (mouse P 388 leukemia): Activity

IC50 (MCF-7 breast cancer [1]; [8]): 4 µM
IC50 [2, 10]: 1.9 µM
Compound: mer-[RhCl3(DMSO)(bpy)] [Rh1a]
isomerization [7]: isomerize rapidly to a mixture of fac- and mer-isomers

IC50 (MCF-7 breast cancer [1]; [8]): 0.051 µM
IC50 [2, 10]: 0.07 µM
Compound: mer-[RhCl3(DMSO)(dppn)] [Rh5a]

IC50 (MCF-7 breast cancer [1]; [8]): 0.095 µM
IC50 [2, 10]: 0.073 µM
Compound: mer-[RhCl3(DMSO)(dppz)]·1.5H2O [Rh4a]

IC50 (MCF-7 breast cancer [1]; [8]): 0.079 µM
IC50 [2, 10]: 0.069 µM
Compound: mer-[RhCl3(DMSO)(dpq)] [Rh3a]

IC50 (MCF-7 breast cancer [1]; [8]): 0.4 µM
IC50 [2, 10]: 0.19 µM
Compound: mer-[RhCl3(DMSO)(phen)]·H2O [Rh2a]
isomerization [7]: isomerize rapidly to a mixture of fac- and mer-isomers
